{"source": "patent US6630516B2", "about": "“Methods and compositions for preventing and treating chronological aging in human skin” (The Regents of the University of Michigan, priority 1997, dated 2003)", "key": {"[1]": {"test_system": "sun-protected skin of subjects at least 80 years old", "test": "Histology and morphometry of elderly skin biopsied seven days after one topical treatment", "format": "in vivo, human", "description": "To investigate the treatment of chronologically-aged skin, 17 subjects having an age of at least 80 years old were given one topical treatment with 1% retinol or with vehicle alone, the test area was occluded for seven days, and the test area was then biopsied. The vehicle was composed of a mixture of ethanol and polyethylene glycol in a 70:30 volumetric ratio. In comparing vehicle-treated skin with untreated skin from individuals of the same elderly age range, there were no statistically significant differences in any of the parameters described with reference to FIG. 2, namely the number of fibroblasts and keratinocytes, the epidermal thickness, and undesirable dermal connective tissue features. […] Due to the short duration of the retinoid (retinol) treatment, little change in the number of detrimental dermal connective tissue features (11B) was apparent.\nHistology and morphometry. Replicate 4-mm punch biopsies were obtained from buttock skin of each individual. Formalin-fixed tissue pieces were sectioned, stained with hematoxylin and eosin, randomized and blinded. The sections were examined using an Olympus BX40 microscope in conjunction with a Sony DCX-151 high-resolution camera. Blocked areas 200 μm on a side were isolated using NIH Imager software and epidermal height was assessed at four sites (25 μm apart) in each of two such areas. The same two blocked areas were used for epithelial cell counts. The number of interstitial cell nuclei (i.e., nuclei below the dermo-epidermal juncture, not associated with capillaries) over the entire histological section was determined as a measure of dermal cellularity. The same blinded sections were scored for connective tissue fiber spacing, thickness, degree of disorganization and depth of disorganization, using a scale of 1-9 for each parameter."}, "[2]": {"test_system": "keratinocytes", "test": "Ex vivo cell growth from biopsies after 7-day in vivo treatment (keratinocytes)", "parameters": "species or system human", "conditions": "one application of 1% retinol in vivo, occluded seven days, biopsy cells cultured ex vivo; age over 80; p<0.05", "protocol": "(§1) That is, an elderly volunteer was treated with retinol (one application of 1% retinol, occluded for seven days), the treated area was biopsied, and the keratinocytes and fibroblasts from the biopsy were cultured ex vivo. […] In particular, keratinocytes growth increased by about 30% (12A) while fibroblast growth increased by about 200% (12B), with p<0.05 for both. Accordingly, the topical application of a retinoid to aged skin would be expected to increase the number of keratinocytes and/or the number of fibroblasts in the skin.\n(§2) Ex vivo cell growth. Biopsies were minced into small fragments (approximately 15 fragments per tissue piece) and the tissue fragments transferred to plastic cell culture flasks. Culture medium consisted of Dulbecco's Modified Minimal Essential Medium of Eagle with Earle's salts, non-essential amino acids and 10% fetal bovine serum. Tissue fragments were incubated at 37° C. and 5% CO2/95% air for up to one month. Each fragment was scored for whether keratinocytes and/or fibroblasts grew out of the tissue and from this, the percentage of fragments from which keratinocytes and fibroblasts were isolated was determined according to the method of Varani, J., et al., J Clin. Invest., 96, 1747-1756 (1994)."}, "[3]": {"test_system": "fibroblasts", "test": "Ex vivo cell growth from biopsies after 7-day in vivo treatment (fibroblasts)", "parameters": "species or system human", "conditions": "one application of 1% retinol in vivo, occluded seven days, biopsy cells cultured ex vivo; age over 80; p<0.05", "protocol": "as §1, §2"}, "[4]": {"test_system": "MMP-1", "test": "Matrix metalloproteinase assay (collagenolytic activity) in biopsies of treated elderly skin", "format": "in vivo, human", "conditions": "seven days after a single retinol treatment, vs vehicle only, p<0.001", "description": "(§3) We also used the biopsies from the aforementioned volunteers to determine the effect of the same retinoid treatment on the relative activity of the same collagenase enzymes studied for the results shown in FIG. 4. FIGS. 14A, 14B, and 14C depict the average MMP activity levels (for collagenase MMP-1 and gelatinases MMP-9 and MMP-2, respectively) after treatment of elderly individuals with retinol. […] (In FIGS. 14A-14C, the number of subjects for each figure was 10; “*” indicates […] versus the 18-29 year old values, “**” indicates p<0.1, and “***” indicates p<0.001.)\nMatrix metalloproteinase assays. Tissue pieces were frozen in liquid nitrogen immediately after biopsy, homogenized in 20 mM Tris HCl (pH 7.6) plus 5 mM CaCl2, and centrifuged at 3000×g for 10 minutes to remove particulates. Ability to release soluble radioactive fragments from 3H-labeled fibrillar Type I collagen (described by Fisher, G. J., et al., Nature, 379, 335-339 (1996) and Hu, C-L, et al., Analytic. Biochem, 88, 638-643 (1978)) was used as a measure of collagenolytic activity. […] Subsequently, 0.2 μCi of collagen substrate (NEN-DuPont, Boston, Mass.) was incubated for 24 hours with 50 μl of tissue extract. […] Radioactivity remaining in the supernatant fluid was then measured and from this, the percentage of substrate hydrolzyed was determined."}, "[5]": {"test_system": "MMP-9", "test": "Gelatin zymography in biopsies of treated elderly skin (MMP-9)", "format": "in vivo, human", "conditions": "seven days after a single retinol treatment, vs vehicle only, p<0.001", "description": "as §3\n(§4) Gelatin zymography (Varani et al., op. cit.) was used to assess MMP-2 (72-kD gelatinase; gelatinase A) and MMP9 (92-kD gelatinase; gelatinase B) activity. Tissue extracts were electrophoresed in an 8.5% SDS-polyacrylamide gel containing 1 mg/ml of gelatin. After electrophoresis, the SDS was removed by three sequential washes in 1% Triton X-100. The first two washes were for 20 minutes each and the last was overnight. Quantitation of hydrolysis zone width was done by laser densitometry."}, "[6]": {"test_system": "MMP-2", "test": "Gelatin zymography in biopsies of treated elderly skin (MMP-2)", "format": "in vivo, human", "conditions": "seven days after a single retinol treatment, vs vehicle only", "description": "as §3, §4"}, "[7]": {"test_system": "Type III procollagen α1(III) mRNA", "test": "In vivo induction of Type III procollagen mRNA in elderly skin", "parameters": "species or system human", "conditions": "1% retinol cream applied once to sun-protected skin, covered with a patch seven days; seven 80+ year old individuals", "protocol": "Seven 80+ year old individuals were treated clinically with 1% retinol cream, applied once to sun-protected skin, covered with a patch, and left undisturbed for seven days.\nNorthern analysis of RNA. Total RNA (e.g., for c-Jun, procollagen α1(III)) was isolated from skin samples by guanidinium hydrochloride lysis and ultracentrifugation (as described by G. J. Fisher et al., “Cellular, immunologic and biochemical characterization of topical retinoic acid-treated human skin,” J Investig. Dermatol, 96:699-707 (1991)). Northern analysis of total RNA (40 μg/lane) with randomly primed ^32P labelled cDNA probes for the particular mRNA to be determined were performed as described by G. J. Fisher et al. (in “All trains retinoic acid induces cellular retinol-binding protein in human skin in vivo,” J Investig. Dermatol, 105:80-86 (1995)). Type III procollagen mRNA was determined using […]."}, "[8]": {"test_system": "ERK", "test": "ERK activity assay in biopsies of treated elderly skin", "format": "in vivo, human", "conditions": "1% retinol applied to sun-protected skin, occluded, examined seven days later; three 80+ year old volunteers; control normalized to one", "excerpt": "Using the same technique as previously described for retinoid treatment (1% retinol applied to sun-protected skin, occluded, and examined seven days later), we treated and then tested three of our 80+ year old volunteers to determine the effect of retinoid treatment on ERK activity. […] ERK phosphorylation and activity assays. ERK1 and ERK2 in skin supernatants were immunoprecipitated with antibodies from Santa Cruz Biotechnology Inc. and assayed for enzymatic activity using myelin basic protein as substrate, as described by J. D. Weber et al. (“Sustained activation of extracellular-signal regulated kinase I (ERK1) is required for the continued expression of cyclin D1 in G1 phase,” Biochem. J., 326:61-68 (1997)). Total and phosphorylated ERK1 and ERK2 in supernatants were determined by Western analysis, using antibodies from New England Biolabs Inc. (Beverly, Mass.)"}, "[9]": {"test_system": "c-Jun protein", "test": "Stained sectioned biopsies of elderly skin: c-Jun protein", "format": "in vivo, human", "conditions": "seven days after a single application of 1% retinol; 80+ volunteers; stained sections", "description": "As noted above, AP-1 induces MMP formation and is formed by the heterodimerization of c-Jun and c-Fos proteins."}, "[10]": {"test_system": "Type I procollagen", "test": "Stained sectioned biopsies of elderly skin: Type I procollagen", "format": "in vivo, human", "conditions": "seven days after a single application of 1% retinol; 80+ volunteers; stained sections; vs vehicle", "description": "(§5) Additional sectioned and stained biopsies from our oldest (80+) group of volunteers after retinoid treatment are depicted in FIG. 18. As noted above, AP-1 induces MMP formation and is formed by the heterodimerization of c-Jun and c-Fos proteins. […] Thus, our invention appears to inhibit c-Jun formation and thereby inhibit the formation of AP-1 and the resulting MMPs. […] (The apparently lower density of procollagen in the dermis in FIG. 18C is an artifact of the section made; there is clearly a higher level of staining in the retinol treated section than in the vehicle treated section.)\n(§6) In another aspect, this invention is directed to improving, or stimulating, the synthesis of Types I and III procollagen in an elderly person's skin. We have found there is a significant reduction in Types I and III procollagen synthesis in sun-protected skin of many (at least 50% of) aged individuals and that this condition can be treated by the topical application of a retinoid. Procollagen is a protein synthesized by skin fibroblast cells and then secreted into the extracellular medium, where it is converted by naturally occurring enzymes into collagen. Reduced procollagen synthesis in an elderly person's skin is manifest as a reduced presence of procollagen protein in both the upper dermis (extracellular) and in fibroblasts throughout the dermis, and can be determined (e.g.) by immunohistochemistry."}, "[11]": {"test_system": "Type III procollagen", "test": "Stained sectioned biopsies of elderly skin: Type III procollagen", "format": "in vivo, human", "conditions": "seven days after a single application of 1% retinol; 80+ volunteers; stained sections; vs vehicle", "description": "as §5, §6"}, "[12]": {"test_system": "procollagen protein", "test": "Procollagen protein levels in chronologically-aged skin after treatment", "format": "in vivo, human", "conditions": "single application of 1% retinol to chronologically-aged skin, covered with air-permeable adhesive bandage, examined seven days later", "description": "as §6\nIt has been found unexpectedly that topical treatment of elderly, chronoaged skin with a retinoid results in a restitution of intracellular procollagen protein levels similar to those observed in young individuals (such as those aged 40 and younger). […] It would be more preferable for elderly persons to apply the retinoid once or twice daily to maintain a therapeutic regimen, although the agent could be applied on a less frequent but preferably regular basis (e.g., every other day, or once weekly). […]"}, "[13]": {"conditions": "1% retinol, one topical application, occluded seven days, vs vehicle-treated skin, age 80+"}, "[14]": {"conditions": "one application of retinol, 7 days, sun-protected skin of an individual, vs vehicle-treated skin"}}, "note": "“Also recorded” adds a separate entry of the source."}
{"smiles": "CC1=C(/C=C/C(C)=C/C=C/C(C)=C/CO)C(C)(C)CCC1", "note": "[retinol]", "values": [{"measurement": "mean increase in number of keratinocytes per section", "setting": "[1]; 1% retinol, one topical application, occluded seven days, vs vehicle-treated skin of same individuals, age 80+, p<0.001", "result": 273, "unit": "%"}, {"measurement": "mean increase in number of fibroblasts per section", "setting": "[1]; 1% retinol, one topical application, occluded seven days, vs vehicle-treated skin of same individuals, age 80+, p<0.05", "result": 30, "unit": "%"}, {"measurement": "epidermal thickness", "setting": "[1]; [13]", "result": "increased the epidermal thickness substantially; also recorded: thickened"}, {"measurement": "number of detrimental dermal connective tissue features", "setting": "[1]; [13]", "result": "little change"}, {"measurement": "appearance of dermal collagen", "setting": "[1]; [14]", "result": "denser and more regular"}, {"measurement": "interfacial surface area between epidermis and dermis (rete pegs and dermal papillae)", "setting": "[1]; [14]", "result": "increased"}, {"measurement": "increase in ex vivo keratinocytes growth", "setting": "[2]", "result": "about 30%"}, {"measurement": "increase in ex vivo fibroblast growth", "setting": "[3]", "result": "about 200%"}, {"measurement": "decrease in MMP-1 activity", "setting": "[4]", "result": 48, "unit": "%"}, {"measurement": "decrease in MMP-9 activity", "setting": "[5]", "result": 39, "unit": "%"}, {"measurement": "change in the activity of MMP-2", "setting": "[6]", "result": "no significant change"}, {"measurement": "increase in Type III procollagen mRNA from control (vehicle-treated) areas", "setting": "[7]", "result": "about 2.5 times"}, {"measurement": "ERK activity in vivo compared with vehicle-treated area", "setting": "[8]", "result": "more than doubled"}, {"measurement": "c-Jun level in elderly skin compared with vehicle-treated skin", "setting": "[9]", "result": "decreased; also recorded: significantly reduced (almost absent)"}, {"measurement": "level of Type I procollagen in skin", "setting": "[10]", "result": "increased; also recorded: enhanced"}, {"measurement": "level of Type III procollagen in skin", "setting": "[11]", "result": "increased; also recorded: enhanced"}, {"measurement": "procollagen protein levels", "setting": "[12]", "result": "comparable to those found in sun-protected skin of significantly younger individuals"}]}
